“And” between values parts separate entries of the source, which are not always exact repeats. Equal entries are not always repeated. Structures can show the parent of a compound that is named as a salt. Where two headings read alike, the source gives them in different places.
Tests used:
rat nNOS = rat nNOS (Rattus norvegicus (Rat), UniProt P29476); experiment: Purified NOS enzyme assay (hemoglobin capture), rat nNOS; format: biochemical
bovine eNOS = bovine eNOS (Bos taurus (Bovine), UniProt P29473); experiment: Purified NOS enzyme assay (hemoglobin capture), bovine eNOS; format: biochemical; conditions: for Ki: bovine eNOS, Ki calculated from IC50, average of at least two replicates; for Selectivity n/e: ratio of respective Ki values (eNOS/nNOS)
murine macrophage iNOS = murine macrophage iNOS (Mus musculus (Mouse), UniProt P29477); conditions: for Selectivity n/i: ratio of respective Ki values (iNOS/nNOS); for Ki: read-out: Ki iNOS, murine iNOS, Ki calculated from IC50, average of at least two replicates
Caco-2 cells = conditions: background statement on prior art compound; cited from earlier work
human nNOS = human nNOS (Homo sapiens (Human), UniProt P29475); experiment: Purified NOS enzyme assay (hemoglobin capture), human nNOS; format: biochemical
newborn rabbit kits = conditions: administered intravenously to the dam; cited from earlier work
[1] = rat nNOS, Ki calculated from IC50, average of at least two replicates, read-out: Ki nNOS

Ki (rat nNOS; [1]) | Ki (bovine eNOS) | Selectivity n/e (bovine eNOS) | Selectivity n/i (murine macrophage iNOS) | Ki (murine macrophage iNOS) | Structure (SMILES) | also measured
> 5.7 µM |  |  |  |  | Nc1ccc2cc(CCNCc3cccc(F)c3)ccc2n1 [Compound 11, 6-[2-(3-Fluorobenzylamino)ethyl]quinolin-2-amine Dihydrochloride] | 
0.183 µM | 8.86 µM | 37 | 280 | 51.2 µM | Cl.Cl.Nc1ccc2ccc(CCNCCc3ccc(F)cc3)cc2n1 [Compound 14, 7-[(4-Fluorophenethylamino)ethyl]quinolin-2-amine Dihydrochloride] | 
0.212 µM | 9.89 µM | 47 | 91 | 19.2 µM | Cl.Cl.Nc1ccc2ccc(CCNCCc3ccc(Cl)cc3)cc2n1 [Compound 16, 7-[(4-Chlorophenethylamino)ethyl]quinolin-2-amine Dihydrochloride] | 
 |  |  |  |  | [H]/N=C(/Nc1cccc(CNCCc2cccc(F)c2)c1)c1cccs1 [Compound 3] | Caco-2 permeability (Caco-2 cells): poor
 |  |  |  |  | Cc1cc(N)nc(C[C@@H]2CNC[C@@H]2NCCNCCc2cccc(F)c2)c1 [Compound 1] | effect on hypoxic-ischemic brain damage phenotype (newborn rabbit kits): reverses a hypoxic-ischemic brain damage phenotype
> 5.7 µM |  |  |  |  | Nc1ccc2cc(CCNCCc3cccc(F)c3)ccc2n1 [Compound 12, 6-[(3-Fluorophenethylamino)ethyl]quinolin-2-amine Dihydrochloride] | 
0.254 µM | 7.77 µM | 30 | 97 | 24.5 µM | Cl.Cl.Nc1ccc2ccc(CCNCc3cccc(F)c3)cc2n1 [Compound 6, 7-[2-(3-Fluorobenzylamino)ethyl]quinolin-2-amine Dihydrochloride] | 

Structure (SMILES) | Ki (rat nNOS; [1]) | Ki (bovine eNOS) | Selectivity n/e (bovine eNOS) | Selectivity n/i (murine macrophage iNOS) | Ki (murine macrophage iNOS) | also measured
Cl.Cl.Nc1ccc2ccc(CNCCCc3cccc(F)c3)cc2n1 [Compound 9, 7-{2-[3-(3-Fluorophenyl(propylamino)methyl]}quinolin-2-amine Dihydrochloride] | 0.06 µM | 3.69 µM |  |  | 32.3 µM | 
Cl.Cl.Nc1ccc2ccc(CNCCc3cccc(F)c3)cc2n1 [Compound 5, 7-[(3-Fluorophenethylamino)methyl]quinolin-2-amine Dihydrochloride] |  | 0.485 µM | 6.2 | 124 | 9.14 µM | Ki (rat nNOS; purified nNOS, read-out: inhibition of nNOS): 0.074 µM; Ki (rat nNOS; rat nNOS, Ki calculated from IC50, average of at least two replicates, Dihydrochloride, read-out: Ki nNOS): 0.075 µM and 0.074 µM; selectivity for nNOS over eNOS (bovine eNOS): approximately 6 fold; Ki (human nNOS; human nNOS, Ki calculated from IC50, average of at least two replicates): 0.493 µM; Selectivity (Rat/Human) (human nNOS; ratio of respective Ki values, Ki-human/Ki-rat): 6.7
Nc1ccc2cc(CNCCc3cccc(F)c3)ccc2n1 [Compound 10, 6-[(3-Fluorophenethylamino)methyl]quinolin-2-amine Dihydrochloride] | > 5.7 µM |  |  |  |  | 
Cl.Cl.Nc1ccc2ccc(CNCCCc3cccc(F)c3)cc2n1 [Compound 9] |  |  | 62 | 538 |  | 
